Earlier results on one compound are cited in patent publication US20250073182A1, “LOW DOSAGE GOSSYPOL CON[…] RODENTS” (priority 2023, published 2025).

One series deals with female rats. The following applies: female rats (Gadelha et al. 2014; Lin, et al., 1985).
The subject of series [1] is ovarian follicles of female mice. The following applies: in vitro, all stages of development (Luz et al. 2018; Ding et al. 2021).
Setting [2] is: gossypol in cottonseed meal at 15 mg/kg per day for 4 weeks.
Where [3] appears, read: low doses, after 4 weeks (Nadakavukaren et al. 1979).

Consider `Cc1cc2c(C(C)C)c(O)c(O)c(C=O)c2c(O)c1-c1c(C)cc2c(C(C)C)c(O)c(O)c(C=O)c2c1O` (atropisomer, axis not shown) [gossypol], for which, in the series with male rats (daily 30 mg/kg for 6 weeks or 7.5 and 15 mg/kg for 12 weeks (Chang et al. 1982)), the “epididymal and accessory sex glands weights” value is recorded as “reduced”. Further, in the series with male rats (setting [2]), the fertility result is “reduced” and the toxicity entry is recorded as “absent”. Besides, the “effects at high doses in rats” value with male rats (high doses (Romualdo et al. 2002; Gadelha et al. 2014)) is “reduced food intake, anorexia, and hepatic toxicity”. In the series with male rats (setting [3]), the offspring produced result was “no offspring were produced” and the spermatozoa with defects entry is recorded as “over 50%”. For the same compound, the pregnancy rates entry in the series on male rats (male rats given ≥10 mg/kg/d, bred to fertile females, as early as 6 weeks (Randel et al. 1992)) was “significantly lower”. Besides, the “fertility after withdrawal of treatment” value in the series with male rats (rats (Chang et al. 1982)) was “recovery in fertility”. Also, the seminal vesicle weight entry in the series on male mice (20 or 40 mg/kg body weight, 3 weeks (Singh and Rath, 1990)) is “significant decrease”. For the same compound, the sperm counts result in the series on male mice (two mouse strains, 10 and 20 mg/kg BW orally for 4 weeks (Hunt and Mittwoch 1984)) is on record as “reduced”. Also, the estrous cycle entry in the series on female rats is recorded as “longer estrous cycle”. In series [1], the “number of atretic follicles” value is on record as “increased” and the “number of viable follicles” value is “significantly decreased”.
